15 molecules from PubChem BioAssay AID200 (DTP/NCI, 2004) can be followed below.

Values joined by “and” are separate entries in the source; they are usually repeats but may differ in a detail not shown here. Equal entries are not always repeated. Toxic doses and inconclusive results are not listed. Where a SMILES comes first, the peptide text is derived from it. [ ]: non-standard residue; d: D form. The star is where a group is joined. ξ: configuration not given here. Cbz = O=C(OCc1ccccc1)*; OBn = c1ccc(CO*)cc1; Bn = c1ccc(C*)cc1; ξC = NC(CS)C(=O)O

This experiment concerns B6C3F1 mice, B16 melanoma ip, median survival T/C. Description: NCI In Vivo Anticancer Drug Screen. Data for tumor model B16 Melanoma (intraperitoneal) in B6C3F1 mice. The following applies: endpoint: median survival time, higher = longer survival. Here is the method: The antitumor activity of compounds was measured in mice bearing transplantable tumors. Survival or tumor size were measured and the results are expressed as the measurement made in the treated group (T) divided by the measurement made in the vehicle treated control group (C). The tumor model used in this assay is B16 Melanoma (intraperitoneal) in B6C3F1 mice

Setting [1] is: dose: 100.0 mg/kg/injection, schedule: Q01DX009 (ip), vehicle: saline with Tween-80.
Setting [2] is: dose: 200.0 mg/kg/injection, schedule: Q01DX009 (ip), vehicle: saline with Tween-80.
[3] abbreviates: dose: 100.0 mg/kg/injection, schedule: Q01DX009 (ip), vehicle: Klucel (hydroxypropylcellulose) (HPC).
[4] abbreviates: dose: 12.5 mg/kg/injection, schedule: Q01DX009 (ip), vehicle: Klucel (hydroxypropylcellulose) (HPC).
The mark [5] stands for this setting: dose: 25.0 mg/kg/injection, schedule: Q01DX009 (ip), vehicle: Klucel (hydroxypropylcellulose) (HPC).
The mark [6] stands for this setting: dose: 50.0 mg/kg/injection, schedule: Q01DX009 (ip), vehicle: Klucel (hydroxypropylcellulose) (HPC).
Where [7] appears, read: dose: 25.0 mg/kg/injection, schedule: Q01DX009 (ip), vehicle: saline with Tween-80.
Where [8] appears, read: dose: 50.0 mg/kg/injection, schedule: Q01DX009 (ip), vehicle: saline with Tween-80.
Where [9] appears, read: dose: 6.25 mg/kg/injection, schedule: Q01DX009 (ip), vehicle: Klucel (hydroxypropylcellulose) (HPC).

`Nc1ncn(C2CC(O)C(CO)O2)c(=O)n1` (stereo not drawn): the T/C by setting is: (dose: 0.25 mg/kg/injection, schedule: Q01DX009 (ip), vehicle: Klucel (hydroxypropylcellulose) (HPC)) 86 % of control; (dose: 0.25 mg/kg/injection, schedule: Q01DX009 (ip), vehicle: saline) 117 % of control; (dose: 15.62 micrograms/kg/injection, schedule: Q01DX009 (ip), vehicle: Klucel (hydroxypropylcellulose) (HPC)) 87 % of control; (dose: 31.25 micrograms/kg/injection, schedule: Q01DX009 (ip), vehicle: Klucel (hydroxypropylcellulose) (HPC)) 86 % of control; (dose: 125.0 micrograms/kg/injection, schedule: Q01DX009 (ip), vehicle: Klucel (hydroxypropylcellulose) (HPC)) 114 % of control; (dose: 250.0 micrograms/kg/injection, schedule: Q01DX009 (ip), vehicle: Klucel (hydroxypropylcellulose) (HPC)) 97 % of control.
In the case of `NC(CSSCC(N)C(=O)O)C(=O)O` (stereo not drawn), the T/C under setting [1] was 101 % of control; the T/C under setting [2] is 103 % of control; the T/C (dose: 400.0 mg/kg/injection, schedule: Q01DX009 (ip), vehicle: saline with Tween-80) is 117 % of control; the T/C (dose: 800.0 mg/kg/injection, schedule: Q01DX009 (ip), vehicle: saline with Tween-80) is 102 % of control.
Consider `CC(C)(C)OC(=O)NC(Cc1ccc(O)cc1)C(=O)O` (stereo not drawn), for which the T/C by setting is: under setting [3], 108 % of control; (dose: 200.0 mg/kg/injection, schedule: Q01DX009 (ip), vehicle: Klucel (hydroxypropylcellulose) (HPC)) 103 % of control; (dose: 400.0 mg/kg/injection, schedule: Q01DX009 (ip), vehicle: Klucel (hydroxypropylcellulose) (HPC)) 97 % of control.
In the case of `COc1cccc2c1C(=O)c1c(O)c3c(c(O)c1C2=O)C[C@@](O)(C(=O)CO)C[C@@H]3OC1CC(N2CCOCC2C#N)C(O)C(C)O1` (stereo partly drawn), the T/C reads like this: (dose: 9.38 micrograms/kg/injection, schedule: Q01DX001 (ip), vehicle: water) 156 % of control; (dose: 18.75 micrograms/kg/injection, schedule: Q01DX001 (ip), vehicle: water) 153 % of control; (dose: 37.5 micrograms/kg/injection, schedule: Q01DX001 (ip), vehicle: water) 156 % of control.
As to `O=S(=O)(O)C1=CC(=N\Cl)/C=CC/1=N/Cl`, the T/C runs as follows: (dose: 50.0 mg/kg/injection, schedule: Q01DX009 (ip), vehicle: saline + Tween-80 + alcohol) 100 % of control; (dose: 100.0 mg/kg/injection, schedule: Q01DX009 (ip), vehicle: saline + Tween-80 + alcohol) 100 % of control.
On to `C1CN1P1(N2CC2)=NP(N2CC2)(N2CC2)=NP(N2CC2)(N2CC2)=NP(N2CC2)(N2CC2)=N1`, for which the T/C is 95 % of control and 98 % of control (dose: 1.0 mg/kg/injection, schedule: Q01DX009 (ip), vehicle: saline); 91 % of control and 97 % of control (dose: 1.0 mg/kg/injection, schedule: Q02DX009 (ip), vehicle: saline); 92 % of control and 96 % of control (dose: 2.0 mg/kg/injection, schedule: Q01DX009 (ip), vehicle: saline); 91 % of control and 97 % of control (dose: 2.0 mg/kg/injection, schedule: Q02DX009 (ip), vehicle: saline); 109 % of control and 95 % of control (dose: 4.0 mg/kg/injection, schedule: Q01DX009 (ip), vehicle: saline); 91 % of control and 98 % of control (dose: 4.0 mg/kg/injection, schedule: Q02DX009 (ip), vehicle: saline). Also, the T/C was 89 % of control and 107 % of control (dose: 8.0 mg/kg/injection, schedule: Q01DX009 (ip), vehicle: saline); 90 % of control and 97 % of control (dose: 8.0 mg/kg/injection, schedule: Q02DX009 (ip), vehicle: saline); 91 % of control and 100 % of control (dose: 16.0 mg/kg/injection, schedule: Q01DX009 (ip), vehicle: saline); 112 % of control (dose: 16.0 mg/kg/injection, schedule: Q02DX009 (ip), vehicle: saline); 109 % of control and 91 % of control (dose: 32.0 mg/kg/injection, schedule: Q01DX009 (ip), vehicle: saline); 88 % of control and 103 % of control (dose: 32.0 mg/kg/injection, schedule: Q02DX009 (ip), vehicle: saline). The T/C by setting is: (dose: 64.0 mg/kg/injection, schedule: Q01DX009 (ip), vehicle: saline) 109 % of control and 90 % of control; (dose: 64.0 mg/kg/injection, schedule: Q02DX009 (ip), vehicle: saline) 94 % of control and 100 % of control.
For `O=P(O)(NCCCl)NCCCl`, the T/C by setting is: (dose: 25.0 mg/kg/injection, schedule: Q01DX001 (ip), vehicle: saline with Tween-80) 114 % of control and 119 % of control; (dose: 50.0 mg/kg/injection, schedule: Q01DX001 (ip), vehicle: saline with Tween-80) 115 % of control; (dose: 100.0 mg/kg/injection, schedule: Q01DX001 (ip), vehicle: saline with Tween-80) 159 % of control and 161 % of control; (dose: 200.0 mg/kg/injection, schedule: Q01DX001 (ip), vehicle: saline with Tween-80) 168 % of control and 182 % of control.
As to `CC(=O)NC(CCc1ccc(Cl)c(Cl)c1)c1cccc(O)c(=O)c1` (stereo not drawn), the T/C is, setting by setting: (dose: 3.0 mg/kg/injection, schedule: Q01DX009 (ip), vehicle: Klucel (hydroxypropylcellulose) (HPC)) 93 % of control; (dose: 6.0 mg/kg/injection, schedule: Q01DX009 (ip), vehicle: Klucel (hydroxypropylcellulose) (HPC)) 101 % of control; under setting [4], 101 % of control; under setting [5], 105 % of control; under setting [6], 105 % of control.
As to `Nc1ccc2ccc(O)cc2c1`, the T/C runs as follows: under setting [7], 104 % of control; under setting [8], 97 % of control; under setting [1], 105 % of control.
As for `O=C(Nc1cccnc1)c1ccc([N+](=O)[O-])s1`, the T/C by setting is: (dose: 1.13 mg/kg/injection, schedule: Q01DX009 (ip), vehicle: saline) 96 % of control; (dose: 1.88 mg/kg/injection, schedule: Q01DX009 (ip), vehicle: saline) 92 % of control; (dose: 3.13 mg/kg/injection, schedule: Q01DX009 (ip), vehicle: saline) 97 % of control; (dose: 5.21 mg/kg/injection, schedule: Q01DX009 (ip), vehicle: saline) 94 % of control; (dose: 6.25 mg/kg/injection, schedule: Q01DX009 (ip), vehicle: saline) 103 % of control; (dose: 8.69 mg/kg/injection, schedule: Q01DX009 (ip), vehicle: saline) 89 % of control. Besides, the T/C (dose: 12.5 mg/kg/injection, schedule: Q01DX009 (ip), vehicle: saline) is 97 % of control; the T/C (dose: 25.0 mg/kg/injection, schedule: Q01DX009 (ip), vehicle: saline) was 87 % of control and 99 % of control.
For the molecule `CC(=O)C(=O)O.CC(=O)C(=O)O.[NH-]C1CCCCC1[NH-].[Pt+2]` (stereo not drawn), the T/C (dose: 3.12 mg/kg/injection, schedule: Q01DX009 (ip), vehicle: other) is 122 % of control.
As for `COc1ccc2[nH]c3c(c2c1)CCNC3CC(C)CCC=C(C)C` (stereo not drawn), the T/C runs as follows: under setting [9], 99 % of control; under setting [4], 88 % of control; under setting [5], 97 % of control; under setting [6], 102 % of control; under setting [3], 105 % of control.
With `O=C(CNC(=O)C(CSCc1ccccc1)NC(=O)OCc1ccccc1)NCC(=O)OCc1ccccc1` (stereo not drawn) (Cbz-[ξC](Bn)-Gly-Gly-OBn), the T/C by setting is: under setting [4], 92 % of control; under setting [5], 88 % of control.
For the molecule `O=S(=O)(c1cccc(N=C=S)c1)c1cccc(N=C=S)c1`, the T/C under setting [9] is 109 % of control and the T/C under setting [4] was 94 % of control.
`CN(C)/N=N/c1nc[nH]c1C(N)=O`: the T/C by setting is: (dose: 25.0 mg/kg/injection, schedule: Q01DX009 (ip), vehicle: distilled water + Tween-80) 104 % of control; under setting [7], 100 % of control; under setting [8], 119 % of control; (dose: 60.0 mg/kg/injection, schedule: Q04DX003 (ip), vehicle: carboxymethylcellulose (CMC)) 109 % of control; (dose: 60.0 mg/kg/injection, schedule: Q04DX003 (ip), vehicle: saline) 120 % of control; (dose: 80.0 mg/kg/injection, schedule: Q04DX003 (ip), vehicle: saline) 102 % of control. Further, the T/C was 109 % of control (dose: 100.0 mg/kg/injection, schedule: Q01DX009 (ip), vehicle: distilled water + Tween-80); 113 % of control (dose: 120.0 mg/kg/injection, schedule: Q04DX003 (ip), vehicle: carboxymethylcellulose (CMC)); 118 % of control (dose: 180.0 mg/kg/injection, schedule: Q04DX003 (ip), vehicle: carboxymethylcellulose (CMC)); 120 % of control (dose: 180.0 mg/kg/injection, schedule: Q04DX003 (ip), vehicle: saline); 93 % of control under setting [2].
